Data from paper PMC4917279 (Journal of Medicinal Chemistry, 2016).
“Also recorded” adds a separate entry of the source.

Legend:
RET(V804L) = molecular target: T1, RET(V804L) (Homo sapiens, UniProt P07949, V804L); assay: KINOMEscan; type: binding; settings: read-out: %Ctrl @ 1000 nM
T1 construct: purchased DiscoveRx KINOMEscan

[1] = molecular target: T2, RSK1(Kin.Dom.2-C-terminal) (Homo sapiens, UniProt Q15418); assay: KINOMEscan; type: binding; settings: read-out: %Ctrl @ 1000 nM
T2 construct: RSK1(Kin.Dom.2-C-terminal); purchased DiscoveRx KINOMEscan

SGK2 = molecular target: T3, SGK2 (Homo sapiens, UniProt Q9HBY8); assay: KINOMEscan; type: binding; settings: read-out: %Ctrl @ 1000 nM
T3 construct: purchased DiscoveRx KINOMEscan

SRC = molecular target: T4, SRC (Homo sapiens, UniProt P12931); assay: KINOMEscan; type: binding; settings: read-out: %Ctrl @ 1000 nM
T4 construct: purchased DiscoveRx KINOMEscan

BRAF(V600E) = molecular target: T5, BRAF(V600E) (Homo sapiens, UniProt P15056, V600E); assay: KINOMEscan; type: binding; settings: read-out: %Ctrl @ 1000 nM
T5 construct: purchased DiscoveRx KINOMEscan

PIM1 = molecular target: T6, PIM1 (Homo sapiens, UniProt P11309); assay: KINOMEscan; type: binding; settings: read-out: %Ctrl @ 1000 nM
T6 construct: purchased DiscoveRx KINOMEscan

CSNK1D = molecular target: T7, CSNK1D (Homo sapiens, UniProt P48730); assay: KINOMEscan; type: binding; settings: read-out: %Ctrl @ 1000 nM
T7 construct: purchased DiscoveRx KINOMEscan

CDC2L2 = molecular target: T8, CDC2L2 (Homo sapiens, UniProt Q9UQ88); assay: KINOMEscan; type: binding; settings: read-out: %Ctrl @ 1000 nM
T8 construct: purchased DiscoveRx KINOMEscan

PRKD3 = molecular target: T9, PRKD3 (Homo sapiens, UniProt O94806); assay: KINOMEscan; type: binding; settings: read-out: %Ctrl @ 1000 nM
T9 construct: purchased DiscoveRx KINOMEscan

MET = molecular target: T10, MET (Homo sapiens, UniProt P08581); assay: KINOMEscan; type: binding; settings: read-out: %Ctrl @ 1000 nM
T10 construct: purchased DiscoveRx KINOMEscan

JNK3 = molecular target: T11, JNK3 (Homo sapiens, UniProt P53779); assay: KINOMEscan; type: binding; settings: read-out: %Ctrl @ 1000 nM
T11 construct: purchased DiscoveRx KINOMEscan

CSF1R = molecular target: T12, CSF1R (Homo sapiens, UniProt P07333); assay: KINOMEscan; type: binding; settings: read-out: %Ctrl @ 1000 nM
T12 construct: purchased DiscoveRx KINOMEscan

SRPK2 = molecular target: T13, SRPK2 (Homo sapiens, UniProt P78362); assay: KINOMEscan; type: binding; settings: read-out: %Ctrl @ 1000 nM
T13 construct: purchased DiscoveRx KINOMEscan

[2] = molecular target: T14, RPS6KA4(Kin.Dom.1-N-terminal) (Homo sapiens, UniProt O75676); assay: KINOMEscan; type: binding; settings: read-out: %Ctrl @ 1000 nM
T14 construct: RPS6KA4(Kin.Dom.1-N-terminal); purchased DiscoveRx KINOMEscan

PIK3CA(C420R) = molecular target: T15, PIK3CA(C420R) (Homo sapiens, UniProt P42336, C420R); assay: KINOMEscan; type: binding; settings: read-out: %Ctrl @ 1000 nM
T15 construct: purchased DiscoveRx KINOMEscan

PIK3CA(Q546K) = molecular target: T16, PIK3CA(Q546K) (Homo sapiens, UniProt P42336, Q546K); assay: KINOMEscan; type: binding; settings: read-out: %Ctrl @ 1000 nM
T16 construct: purchased DiscoveRx KINOMEscan

PAK2 = molecular target: T17, PAK2 (Homo sapiens, UniProt Q13177); assay: KINOMEscan; type: binding; settings: read-out: %Ctrl @ 1000 nM
T17 construct: purchased DiscoveRx KINOMEscan

ABL1-phosphorylated = molecular target: T18, ABL1-phosphorylated (Homo sapiens, UniProt P00519); assay: KINOMEscan; type: binding; settings: read-out: %Ctrl @ 1000 nM
T18 construct: purchased DiscoveRx

MEK3 = molecular target: T19, MEK3 (Homo sapiens, UniProt P46734); assay: KINOMEscan; type: binding; settings: read-out: %Ctrl @ 1000 nM
T19 construct: purchased DiscoveRx KINOMEscan

PRKG2 = molecular target: T20, PRKG2 (Homo sapiens, UniProt Q13237); assay: KINOMEscan; type: binding; settings: read-out: %Ctrl @ 1000 nM
T20 construct: purchased DiscoveRx KINOMEscan

[3] = molecular target: T21, ABL1(H396P)-phosphorylated (Homo sapiens, UniProt P00519, H396P); assay: KINOMEscan; type: binding; settings: read-out: %Ctrl @ 1000 nM
T21 construct: purchased DiscoveRx (KINOMEscan service)

SRPK1 = molecular target: T22, SRPK1 (Homo sapiens, UniProt Q96SB4); assay: KINOMEscan; type: binding; settings: read-out: %Ctrl @ 1000 nM
T22 construct: purchased DiscoveRx KINOMEscan

FYN = molecular target: T23, FYN (Homo sapiens, UniProt P06241); assay: KINOMEscan; type: binding; settings: read-out: %Ctrl @ 1000 nM
T23 construct: purchased DiscoveRx KINOMEscan

EPHB2 = molecular target: T24, EPHB2 (Homo sapiens, UniProt P29323); assay: KINOMEscan; type: binding; settings: read-out: %Ctrl @ 1000 nM
T24 construct: purchased DiscoveRx KINOMEscan

PRKCH = molecular target: T25, PRKCH (Homo sapiens, UniProt P24723); assay: KINOMEscan; type: binding; settings: read-out: %Ctrl @ 1000 nM
T25 construct: purchased DiscoveRx KINOMEscan

CTK = molecular target: T26, CTK (Homo sapiens, UniProt P42679); assay: KINOMEscan; type: binding; settings: read-out: %Ctrl @ 1000 nM
T26 construct: purchased DiscoveRx KINOMEscan

SYK = molecular target: T27, SYK (Homo sapiens, UniProt P43405); assay: KINOMEscan; type: binding; settings: read-out: %Ctrl @ 1000 nM
T27 construct: purchased DiscoveRx KINOMEscan

KIT(L576P) = molecular target: T28, KIT(L576P) (Homo sapiens, UniProt P10721, L576P); assay: KINOMEscan; type: binding; settings: read-out: %Ctrl @ 1000 nM
T28 construct: purchased DiscoveRx KINOMEscan

MLK1 = molecular target: T29, MLK1 (Homo sapiens, UniProt P80192); assay: KINOMEscan; type: binding; settings: read-out: %Ctrl @ 1000 nM
T29 construct: purchased DiscoveRx KINOMEscan

TRKA = molecular target: T30, TRKA (Homo sapiens, UniProt P04629); assay: KINOMEscan; type: binding; settings: read-out: %Ctrl @ 1000 nM
T30 construct: purchased DiscoveRx KINOMEscan

CAMK2A = molecular target: T31, CAMK2A (Homo sapiens, UniProt Q9UQM7); assay: KINOMEscan; type: binding; settings: read-out: %Ctrl @ 1000 nM
T31 construct: purchased DiscoveRx KINOMEscan

DCAMKL2 = molecular target: T32, DCAMKL2 (Homo sapiens, UniProt Q8N568); assay: KINOMEscan; type: binding; settings: read-out: %Ctrl @ 1000 nM
T32 construct: purchased DiscoveRx KINOMEscan

ABL1-nonphosphorylated = molecular target: T33, ABL1-nonphosphorylated (Homo sapiens, UniProt P00519); assay: KINOMEscan; type: binding; settings: read-out: %Ctrl @ 1000 nM
T33 construct: purchased DiscoveRx

GRK1 = molecular target: T34, GRK1 (Homo sapiens, UniProt Q15835); assay: KINOMEscan; type: binding; settings: read-out: %Ctrl @ 1000 nM
T34 construct: purchased DiscoveRx KINOMEscan

SMYD2 = SMYD2 (Homo sapiens, UniProt Q9NRG4); assay: AHNAK methylation Western blot in MDA-MB231 cells overexpressing SMYD2; type: cell-based; parameters: expressed in transfected cells
KIT(D816V) = molecular target: T35, KIT(D816V) (Homo sapiens, UniProt P10721, D816V); assay: KINOMEscan; type: binding; settings: read-out: %Ctrl @ 1000 nM
T35 construct: purchased DiscoveRx KINOMEscan

[4] = molecular target: RPS6KA4(Kin.Dom.2-C-terminal) (Homo sapiens, UniProt O75676); assay: KINOMEscan; type: binding; settings: read-out: %Ctrl @ 1000 nM
FAK = molecular target: T36, FAK (Homo sapiens, UniProt Q05397); assay: KINOMEscan; type: binding; settings: read-out: %Ctrl @ 1000 nM
T36 construct: purchased DiscoveRx KINOMEscan

PIK3C2G = molecular target: T37, PIK3C2G (Homo sapiens, UniProt O75747); assay: KINOMEscan; type: binding; settings: read-out: %Ctrl @ 1000 nM
T37 construct: purchased DiscoveRx KINOMEscan

ULK1 = molecular target: T38, ULK1 (Homo sapiens, UniProt O75385); assay: KINOMEscan; type: binding; settings: read-out: %Ctrl @ 1000 nM
T38 construct: purchased DiscoveRx KINOMEscan

PKN1 = molecular target: T39, PKN1 (Homo sapiens, UniProt Q16512); assay: KINOMEscan; type: binding; settings: read-out: %Ctrl @ 1000 nM
T39 construct: purchased DiscoveRx KINOMEscan

HIPK1 = molecular target: T40, HIPK1 (Homo sapiens, UniProt Q86Z02); assay: KINOMEscan; type: binding; settings: read-out: %Ctrl @ 1000 nM
T40 construct: purchased DiscoveRx KINOMEscan

Sequence of SMYD2 (Q9NRG4 whole entry): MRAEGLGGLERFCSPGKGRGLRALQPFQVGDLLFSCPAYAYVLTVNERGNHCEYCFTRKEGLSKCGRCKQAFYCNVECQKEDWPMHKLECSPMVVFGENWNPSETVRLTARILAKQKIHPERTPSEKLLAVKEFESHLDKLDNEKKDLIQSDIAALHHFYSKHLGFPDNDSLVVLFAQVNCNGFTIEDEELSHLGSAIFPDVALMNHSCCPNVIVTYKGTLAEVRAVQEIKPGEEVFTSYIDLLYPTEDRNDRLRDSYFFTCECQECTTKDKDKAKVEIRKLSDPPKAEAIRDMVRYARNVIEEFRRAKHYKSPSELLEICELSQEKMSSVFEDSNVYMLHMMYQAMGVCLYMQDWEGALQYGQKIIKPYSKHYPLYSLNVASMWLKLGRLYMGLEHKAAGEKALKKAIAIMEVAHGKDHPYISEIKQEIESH
T25 sequence (P24723 whole entry): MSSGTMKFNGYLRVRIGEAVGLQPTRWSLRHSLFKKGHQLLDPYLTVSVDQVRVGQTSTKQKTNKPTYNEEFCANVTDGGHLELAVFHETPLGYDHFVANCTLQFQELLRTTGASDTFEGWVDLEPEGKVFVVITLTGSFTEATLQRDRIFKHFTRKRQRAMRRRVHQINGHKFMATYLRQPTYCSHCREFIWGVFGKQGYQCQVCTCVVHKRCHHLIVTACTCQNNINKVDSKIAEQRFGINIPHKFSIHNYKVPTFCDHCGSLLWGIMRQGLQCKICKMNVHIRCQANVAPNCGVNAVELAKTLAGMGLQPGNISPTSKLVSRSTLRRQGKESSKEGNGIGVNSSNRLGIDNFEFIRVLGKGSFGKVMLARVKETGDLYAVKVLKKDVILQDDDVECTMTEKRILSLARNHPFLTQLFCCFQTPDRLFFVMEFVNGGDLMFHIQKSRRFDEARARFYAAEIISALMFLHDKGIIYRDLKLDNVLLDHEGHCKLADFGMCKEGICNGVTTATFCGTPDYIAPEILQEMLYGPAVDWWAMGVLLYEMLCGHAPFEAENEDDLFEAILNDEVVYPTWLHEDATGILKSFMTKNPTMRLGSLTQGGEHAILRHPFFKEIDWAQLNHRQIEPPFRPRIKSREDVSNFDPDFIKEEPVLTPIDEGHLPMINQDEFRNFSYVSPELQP
T5 sequence (P15056 whole entry V600E): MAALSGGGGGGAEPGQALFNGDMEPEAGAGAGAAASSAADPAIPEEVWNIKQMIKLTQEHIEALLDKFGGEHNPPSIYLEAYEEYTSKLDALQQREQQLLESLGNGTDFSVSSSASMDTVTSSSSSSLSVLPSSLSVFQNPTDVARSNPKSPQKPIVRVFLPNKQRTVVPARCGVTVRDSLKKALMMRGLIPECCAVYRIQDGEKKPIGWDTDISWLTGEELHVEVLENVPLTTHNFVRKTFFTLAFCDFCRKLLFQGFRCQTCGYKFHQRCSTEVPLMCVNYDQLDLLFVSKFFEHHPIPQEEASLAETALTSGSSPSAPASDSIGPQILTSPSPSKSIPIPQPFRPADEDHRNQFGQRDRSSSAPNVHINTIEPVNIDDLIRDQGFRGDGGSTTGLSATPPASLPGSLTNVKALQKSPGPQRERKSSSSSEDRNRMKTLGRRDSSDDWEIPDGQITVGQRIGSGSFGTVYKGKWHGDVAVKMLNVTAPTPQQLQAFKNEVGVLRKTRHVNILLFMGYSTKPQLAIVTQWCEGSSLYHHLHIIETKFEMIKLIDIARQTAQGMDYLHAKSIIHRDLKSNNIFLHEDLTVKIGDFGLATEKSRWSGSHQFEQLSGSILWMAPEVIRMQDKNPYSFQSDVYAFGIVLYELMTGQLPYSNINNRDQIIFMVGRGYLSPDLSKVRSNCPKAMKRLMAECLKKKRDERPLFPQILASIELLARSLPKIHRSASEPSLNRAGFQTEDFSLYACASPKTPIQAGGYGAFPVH
T31 sequence (Q9UQM7 whole entry): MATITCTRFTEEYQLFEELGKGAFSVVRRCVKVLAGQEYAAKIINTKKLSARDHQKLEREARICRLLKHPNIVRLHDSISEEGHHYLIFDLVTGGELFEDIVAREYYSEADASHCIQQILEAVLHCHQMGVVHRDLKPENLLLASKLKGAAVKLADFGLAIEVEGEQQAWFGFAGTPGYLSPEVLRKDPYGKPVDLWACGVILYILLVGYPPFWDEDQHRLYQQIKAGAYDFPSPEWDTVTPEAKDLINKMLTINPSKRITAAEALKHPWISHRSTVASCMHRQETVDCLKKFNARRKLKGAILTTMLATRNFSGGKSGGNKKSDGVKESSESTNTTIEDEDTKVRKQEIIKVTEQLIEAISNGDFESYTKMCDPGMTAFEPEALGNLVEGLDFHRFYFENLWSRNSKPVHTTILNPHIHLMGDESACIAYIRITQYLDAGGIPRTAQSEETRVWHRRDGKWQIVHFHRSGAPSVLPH
T4 sequence (P12931 whole entry): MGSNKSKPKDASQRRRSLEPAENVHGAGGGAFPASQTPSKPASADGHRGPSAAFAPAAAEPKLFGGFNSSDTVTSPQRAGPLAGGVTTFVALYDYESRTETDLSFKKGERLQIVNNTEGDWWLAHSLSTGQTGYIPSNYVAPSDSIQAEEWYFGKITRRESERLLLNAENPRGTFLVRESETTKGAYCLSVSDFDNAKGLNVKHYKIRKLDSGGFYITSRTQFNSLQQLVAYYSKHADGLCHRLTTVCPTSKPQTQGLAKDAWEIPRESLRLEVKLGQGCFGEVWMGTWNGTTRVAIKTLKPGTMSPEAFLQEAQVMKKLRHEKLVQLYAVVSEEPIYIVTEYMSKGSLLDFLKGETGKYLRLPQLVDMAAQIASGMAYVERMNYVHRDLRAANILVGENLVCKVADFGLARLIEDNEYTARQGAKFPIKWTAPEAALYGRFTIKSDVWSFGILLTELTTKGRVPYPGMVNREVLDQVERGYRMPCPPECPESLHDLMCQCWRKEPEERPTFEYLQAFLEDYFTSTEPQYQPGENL
T13 sequence (P78362 whole entry): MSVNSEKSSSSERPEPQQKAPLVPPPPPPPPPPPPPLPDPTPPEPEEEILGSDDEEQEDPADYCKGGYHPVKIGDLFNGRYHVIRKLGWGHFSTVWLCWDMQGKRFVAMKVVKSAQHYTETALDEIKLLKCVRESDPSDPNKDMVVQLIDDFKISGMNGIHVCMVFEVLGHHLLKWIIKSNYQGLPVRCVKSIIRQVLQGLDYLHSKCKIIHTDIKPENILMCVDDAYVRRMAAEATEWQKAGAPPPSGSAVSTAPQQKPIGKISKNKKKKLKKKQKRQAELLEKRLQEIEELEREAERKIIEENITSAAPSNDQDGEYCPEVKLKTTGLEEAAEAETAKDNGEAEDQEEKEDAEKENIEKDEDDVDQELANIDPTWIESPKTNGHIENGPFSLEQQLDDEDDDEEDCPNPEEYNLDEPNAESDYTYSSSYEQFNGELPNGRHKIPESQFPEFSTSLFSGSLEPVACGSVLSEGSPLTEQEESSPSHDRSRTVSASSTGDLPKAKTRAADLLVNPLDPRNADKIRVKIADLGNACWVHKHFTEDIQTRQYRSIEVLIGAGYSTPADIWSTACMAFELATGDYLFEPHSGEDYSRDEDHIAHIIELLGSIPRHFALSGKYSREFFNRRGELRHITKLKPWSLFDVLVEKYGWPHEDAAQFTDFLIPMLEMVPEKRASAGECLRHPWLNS
T32 sequence (Q8N568 whole entry): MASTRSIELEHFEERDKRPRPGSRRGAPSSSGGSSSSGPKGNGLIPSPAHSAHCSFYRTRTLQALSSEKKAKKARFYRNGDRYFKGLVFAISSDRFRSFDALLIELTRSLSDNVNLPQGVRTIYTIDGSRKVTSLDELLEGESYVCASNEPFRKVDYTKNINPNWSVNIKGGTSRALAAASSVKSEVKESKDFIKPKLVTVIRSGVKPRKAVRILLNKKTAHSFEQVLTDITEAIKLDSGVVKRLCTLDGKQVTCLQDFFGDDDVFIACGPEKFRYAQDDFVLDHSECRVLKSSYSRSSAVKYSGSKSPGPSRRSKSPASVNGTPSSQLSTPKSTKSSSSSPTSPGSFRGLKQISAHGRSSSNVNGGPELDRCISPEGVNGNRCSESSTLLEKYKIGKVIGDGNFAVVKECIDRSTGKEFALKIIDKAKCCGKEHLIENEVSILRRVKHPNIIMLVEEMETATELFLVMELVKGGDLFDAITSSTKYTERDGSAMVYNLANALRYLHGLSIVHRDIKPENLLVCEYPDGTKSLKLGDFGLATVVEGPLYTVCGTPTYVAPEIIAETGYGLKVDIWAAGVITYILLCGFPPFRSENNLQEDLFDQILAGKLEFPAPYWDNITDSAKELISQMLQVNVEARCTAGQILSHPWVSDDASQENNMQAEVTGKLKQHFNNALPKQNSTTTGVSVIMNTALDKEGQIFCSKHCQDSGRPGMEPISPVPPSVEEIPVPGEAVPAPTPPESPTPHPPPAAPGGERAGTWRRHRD
T26 sequence (P42679 whole entry): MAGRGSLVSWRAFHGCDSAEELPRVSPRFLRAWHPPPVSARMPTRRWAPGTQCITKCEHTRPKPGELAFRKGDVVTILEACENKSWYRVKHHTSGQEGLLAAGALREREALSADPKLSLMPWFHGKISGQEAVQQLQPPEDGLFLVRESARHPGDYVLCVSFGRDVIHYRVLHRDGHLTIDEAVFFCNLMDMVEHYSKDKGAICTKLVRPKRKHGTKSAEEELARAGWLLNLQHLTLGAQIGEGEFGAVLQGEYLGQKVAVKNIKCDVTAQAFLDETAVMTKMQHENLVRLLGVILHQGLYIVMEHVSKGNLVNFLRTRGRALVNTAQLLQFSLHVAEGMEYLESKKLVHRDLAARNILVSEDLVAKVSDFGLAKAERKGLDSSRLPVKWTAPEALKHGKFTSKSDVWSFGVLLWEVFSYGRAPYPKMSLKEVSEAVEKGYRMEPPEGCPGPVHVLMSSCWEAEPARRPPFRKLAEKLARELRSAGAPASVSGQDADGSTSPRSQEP

CCN(C(=O)CO)[C@H]1CN(/C(=N\C#N)Nc2cccc(OC(F)F)c2)N=C1c1ccc(Cl)c(Cl)c1 [(S)-4]
remaining binding at 1 µM (RET(V804L)): 84% | remaining binding at 1 µM [1]: 100% | remaining binding at 1 µM (SGK2): 100% | remaining binding at 1 µM (SRC): 79% | remaining binding at 1 µM (BRAF(V600E)): 100% | remaining binding at 1 µM (PIM1): 82% | remaining binding at 1 µM (CSNK1D): 100% | remaining binding at 1 µM (CDC2L2): 92% | remaining binding at 1 µM (PRKD3): 99% | remaining binding at 1 µM (MET): 100% | remaining binding at 1 µM (JNK3): 100% | remaining binding at 1 µM (CSF1R): 100% | remaining binding at 1 µM (SRPK2): 95% | remaining binding at 1 µM [2]: 100% | remaining binding at 1 µM (PIK3CA(C420R)): 76% | remaining binding at 1 µM (PIK3CA(Q546K)): 86% | remaining binding at 1 µM (PAK2): 89% | remaining binding at 1 µM (ABL1-phosphorylated): 90% | remaining binding at 1 µM (MEK3): 100% | remaining binding at 1 µM (PRKG2): 84% | remaining binding at 1 µM [3]: 88% | remaining binding at 1 µM (SRPK1): 57% | remaining binding at 1 µM (FYN): 71% | remaining binding at 1 µM (EPHB2): 74% | remaining binding at 1 µM (PRKCH): 80% | remaining binding at 1 µM (CTK): 100% | remaining binding at 1 µM (SYK): 59% | remaining binding at 1 µM (KIT(L576P)): 85% | remaining binding at 1 µM (MLK1): 100% | remaining binding at 1 µM (TRKA): 93% | remaining binding at 1 µM (CAMK2A): 100% | remaining binding at 1 µM (DCAMKL2): 93% | remaining binding at 1 µM (ABL1-nonphosphorylated): 79% | remaining binding at 1 µM (GRK1): 93% | AHNAK methylation (Western blot) (SMYD2): specifically reduced methylation of AHNAK; also recorded: inhibits concentration dependent | remaining binding at 1 µM (KIT(D816V)): 86% | remaining binding at 1 µM [4]: 93% | remaining binding at 1 µM (FAK): 99% | remaining binding at 1 µM (PIK3C2G): 77% | remaining binding at 1 µM (ULK1): 64% | remaining binding at 1 µM (PKN1): 61% | remaining binding at 1 µM (HIPK1): 51%
